Results: ChEMBL document CHEMBL4483862, “Open-source discovery of chemical leads for next-generation chemoprotective antimalarials” (2018)

Tested on: Plasmodium berghei
Test: Luciferase/luciferin-expressing antifolate-resistant parasites were used to infect a culture of HepG2 cells that were pre-incubated with compounds. Infected hepatocytes emit light due to the luciferase reaction. Assay results are presented as the percent inhibition of light emission compared to control. […]
Assay type: functional
Details: sporozoite; for IC90: read-out: LUCIFERASE INFECTION ASSAY - IC90
[1] = read-out: LUCIFERASE INFECTION ASSAY - IC50

Structure (SMILES)	IC90	also measured
Nc1c(C(=O)c2ccc(Cl)cc2)sc2nc3c(c(-c4cccs4)c12)CCCC3	> 7.77 µM	IC50 (FFLUC_HILL_SLOPE 44.8, FFLUC_R_SQUARED 0.458, PBLUC_HILL_SLOPE 1.88, PBLUC_R_SQUARED 0.367, read-out: LUCIFERASE INFECTION ASSAY - IC50): 5.01 µM
O=C1C(=C2NC=C(c3ccc(Cl)cc3)O2)Sc2ncccc21	1.69 µM	IC50 (HEPG2TOX_HILL_SLOPE 1.16, HEPG2TOX_R_SQUARED 0.581, PBLUC_HILL_SLOPE 117, PBLUC_R_SQUARED 0.316, read-out: LUCIFERASE INFECTION ASSAY - IC50): 1.66 µM
CCOc1ccc(CN(C)CC(=O)NCCc2ccc(S(N)(=O)=O)cc2)cc1	> 10 µM	IC50 (HEPG2TOX_HILL_SLOPE 0.961, HEPG2TOX_R_SQUARED 0.961, PBLUC_HILL_SLOPE 1.57, PBLUC_R_SQUARED 0.525, read-out: LUCIFERASE INFECTION ASSAY - IC50): 3.65 µM
COc1cc(OC)nc(Nc2nc(C(N)Cc3ccccc3)cs2)n1 (stereo not drawn)	7.54 µM	IC50 (PBLUC_HILL_SLOPE 4.21, PBLUC_R_SQUARED 0.584, read-out: LUCIFERASE INFECTION ASSAY - IC50): 4.47 µM
O=C(Nc1cc(Cl)ccc1OC(=O)c1ccc(C(F)(F)F)cc1)c1ccc(C(F)(F)F)cc1	2.9 µM	IC50 (HEPG2TOX_HILL_SLOPE 3.38, HEPG2TOX_R_SQUARED 0.98, PBLUC_HILL_SLOPE 2.51, PBLUC_R_SQUARED 0.591, read-out: LUCIFERASE INFECTION ASSAY - IC50): 1.21 µM
Fc1ccc(CNc2ncnc3ccc(Cl)cc23)cc1	9.51 µM	IC50 (HEPG2TOX_HILL_SLOPE 10.6, HEPG2TOX_R_SQUARED 0.947, PBLUC_HILL_SLOPE 2.4, PBLUC_R_SQUARED 0.787, read-out: LUCIFERASE INFECTION ASSAY - IC50): 3.81 µM
C=CCNc1nc2cc(-c3ccccc3C)sc2c(=O)n1C	> 10.6 µM	IC50 (HEPG2TOX_HILL_SLOPE 8.49, HEPG2TOX_R_SQUARED 0.617, read-out: LUCIFERASE INFECTION ASSAY - IC50): > 10.6 µM
CCOC(=O)c1c(-c2ccc(Br)cc2)cn2c(=O)/c(=C3\C=CC=CN3C)sc12	> 10 µM	IC50 (FFLUC_HILL_SLOPE 2.7, FFLUC_R_SQUARED 0.575, PBLUC_HILL_SLOPE 2.12, PBLUC_R_SQUARED 0.479, read-out: LUCIFERASE INFECTION ASSAY - IC50): 7.05 µM
O=C(Nc1cc(Cl)cc(Cl)c1)OCc1ccc(Oc2ccccc2)c([N+](=O)[O-])c1	> 7.62 µM	IC50 [1]: > 7.62 µM
CC(=O)Nc1ccc(-c2cnc3ccc(-c4cccs4)nn23)cc1	2.75 µM	IC50 (HEPG2TOX_HILL_SLOPE 1.84, HEPG2TOX_R_SQUARED 0.871, PBLUC_HILL_SLOPE 5.5, PBLUC_R_SQUARED 0.751, read-out: LUCIFERASE INFECTION ASSAY - IC50): 1.84 µM
Cc1ccc(SCCNS(=O)(=O)c2ccc(F)cc2)cc1	> 10.1 µM	IC50 [1]: > 10.1 µM
O=C(Nc1nc(-c2cccs2)cs1)c1cc(-c2ccccc2)nn1-c1ccccc1	> 10 µM	IC50 (FFLUC_HILL_SLOPE 3.07, FFLUC_R_SQUARED 0.622, PBLUC_HILL_SLOPE 1.11, PBLUC_R_SQUARED 0.202, read-out: LUCIFERASE INFECTION ASSAY - IC50): > 10 µM
CCCc1cc(=O)n2nc(Cc3ccccc3)c(-c3ccccc3)c2[nH]1	> 9.61 µM	IC50 (HEPG2TOX_HILL_SLOPE 6.09, HEPG2TOX_R_SQUARED 0.391, read-out: LUCIFERASE INFECTION ASSAY - IC50): > 9.61 µM
CC(C)c1ccc(NC(=O)N2Cc3cnc(Nc4ccc(OCCN5CCCC5)cc4)nc3C2)cc1	> 6.78 µM	IC50 [1]: > 6.78 µM
Clc1ccccc1Nc1cc2c(cn1)ncn2Cc1ccco1	> 10 µM	IC50 (HEPG2TOX_HILL_SLOPE 2.43, HEPG2TOX_R_SQUARED 0.709, PBLUC_HILL_SLOPE 4.59, PBLUC_R_SQUARED 0.452, read-out: LUCIFERASE INFECTION ASSAY - IC50): 7.52 µM
O=[N+]([O-])c1ccccc1CS(=O)(=O)c1nc2ccccc2s1	> 9.87 µM	IC50 (HEPG2TOX_HILL_SLOPE 1.54, HEPG2TOX_R_SQUARED 0.3, PBLUC_HILL_SLOPE 1.66, PBLUC_R_SQUARED 0.0862, read-out: LUCIFERASE INFECTION ASSAY - IC50): 5.91 µM
CCOC(=O)c1c(-c2ccc(C)o2)csc1NC(=O)CN(C)CC(=O)Nc1ccc(Cl)c(C(F)(F)F)c1	> 10 µM	IC50 [1]: > 10 µM

Structure (SMILES)	IC90	also measured
COCC(C)n1c(C)cc(C(=O)COC(=O)[C@@H]2CCCN2C(=O)c2cccs2)c1C (stereo partly drawn)	> 10 µM	IC50 [1]: > 10 µM
O=C1/C(=C/c2ccccc2Cl)CCC/C1=C\c1ccccc1Cl	> 9.61 µM	IC50 [1]: > 9.61 µM
CC(C)N(C(=O)CSc1ccc(F)c(F)c1)c1ccc(Nc2ccccc2)cc1	6.35 µM	IC50 (PBLUC_HILL_SLOPE 46.2, PBLUC_R_SQUARED 0.0491, read-out: LUCIFERASE INFECTION ASSAY - IC50): 6.06 µM
Cc1cccc(N(C)c2ccnc3c(-c4ccc(C(=O)NC5CC5)cc4)cnn23)c1	6.33 µM	IC50 (PBLUC_HILL_SLOPE 3.89, PBLUC_R_SQUARED 0.384, read-out: LUCIFERASE INFECTION ASSAY - IC50): 3.6 µM
COCCOc1ccc(C(F)(F)F)cc1NC(=O)Nc1ccc(Cl)c(Cl)c1	6.68 µM	IC50 (PBLUC_HILL_SLOPE 3.42, PBLUC_R_SQUARED 0.295, read-out: LUCIFERASE INFECTION ASSAY - IC50): 3.52 µM
Cc1cc(-n2c(C)cc(/C=C3\S/C(=N\C4CCCC4)NC3=O)c2C)no1	> 10 µM	IC50 (PBLUC_HILL_SLOPE 2.3, PBLUC_R_SQUARED 0.376, read-out: LUCIFERASE INFECTION ASSAY - IC50): 5.21 µM
COC(=O)C1=C(Nc2ccc(OS(=O)(=O)c3ccc(Cl)cc3)cc2)CSC1	> 7.75 µM	IC50 [1]: > 7.75 µM
Cc1nn2c(=O)c(Cc3cccc(Cl)c3)c(C)[nH]c2c1-c1ccccc1	2.81 µM	IC50 (FFLUC_HILL_SLOPE 22.4, FFLUC_R_SQUARED 0.436, HEPG2TOX_HILL_SLOPE 3.67, HEPG2TOX_R_SQUARED 0.334, PBLUC_HILL_SLOPE 3.2, PBLUC_R_SQUARED 0.748, read-out: LUCIFERASE INFECTION ASSAY - IC50): 1.41 µM
COc1ccc(O)c(C(=O)NNC(=O)C23CC4CC(CC(C4)C2)C3)c1	> 10 µM	IC50 (PBLUC_HILL_SLOPE 14.2, PBLUC_R_SQUARED 0.249, read-out: LUCIFERASE INFECTION ASSAY - IC50): 8.74 µM
N#Cc1cccc(CSc2nc(NC3CC3)c3ccccc3n2)c1	> 10 µM	IC50 (HEPG2TOX_HILL_SLOPE 0.422, HEPG2TOX_R_SQUARED 0.349, read-out: LUCIFERASE INFECTION ASSAY - IC50): > 10 µM
O=[N+]([O-])c1c(N2CCOCC2)ccc2nsnc12	> 12.4 µM	IC50 (HEPG2TOX_HILL_SLOPE 10.9, HEPG2TOX_R_SQUARED 0.296, read-out: LUCIFERASE INFECTION ASSAY - IC50): > 12.4 µM
COc1ccccc1Oc1ccc(C(F)(F)F)cc1NC(=O)c1sc2ccccc2c1Cl	> 6.91 µM	IC50 [1]: > 6.91 µM
N#Cc1ccc(C(=O)Nc2cccc(Oc3ccccc3)c2)cc1	> 10 µM	IC50 (PBLUC_HILL_SLOPE 3.19, PBLUC_R_SQUARED 0.12, read-out: LUCIFERASE INFECTION ASSAY - IC50): 6.33 µM
CN(C)CCNC(=O)c1cccc(-c2cnc3ccc(-c4cccc(NS(C)(=O)=O)c4)nn23)c1	1.3 µM	IC50 (HEPG2TOX_HILL_SLOPE 1.31, HEPG2TOX_R_SQUARED 0.978, PBLUC_HILL_SLOPE 2.06, PBLUC_R_SQUARED 0.888, read-out: LUCIFERASE INFECTION ASSAY - IC50): 0.447 µM
Cc1nn(C)c2nc(C3CC3)cc(C(=O)Nc3ccccc3C(=O)NC(C)c3ccccc3)c12 (stereo not drawn)	> 10 µM	IC50 [1]: 8.82 µM
CCOC(=O)c1cc(OC)c2cccc(CN3CCCCCC3(C)C(=O)NCC(C)C)c2c1 (stereo not drawn)	> 7.26 µM	IC50 (PBLUC_HILL_SLOPE 12.1, PBLUC_R_SQUARED 0.495, read-out: LUCIFERASE INFECTION ASSAY - IC50): 6.85 µM
CC(C)c1ccc(Nc2ncnc(N)n2)c(Br)c1	> 10.7 µM	IC50 [1]: > 10.7 µM
